Data reported in publication PMC9944328 (Nature Communications, 2023).
Values joined by “and” are separate entries in the source; they are usually repeats but may differ in a detail not shown here. Equal entries are not always repeated.

Target: SSTR2 (Homo sapiens, UniProt P30874)
Experiment: SSTRs Gi-mediated cAMP inhibition, GloSensor, HEK293, 5 μM forskolin, 15 min room temperature (SSTR2 wild-type);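 on Bottom (best-fit value): normalized to the maximal wild-type response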;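 on Bottom (best-fit): normalized to the maximal wild-type response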;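 on Span (best-fit value), cAMP inhibition: normalized to the maximal wild-type response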;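 on Span (best-fit value): normalized to the maximal wild-type response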;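 on Span (best-fit): normalized to the maximal wild-type response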;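 on Span: normalized to the maximal wild-type response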;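 on Top (best-fit): normalized to the maximal wild-type response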
Type: cell-based
Design: Best-fit Top, cAMP inhibition / Span, cAMP inhibition / Best-fit Bottom / Best-fit Top / Best-fit Span / Bottom / Span (best-fit value), cAMP inhibition / Top (best-fit value), cAMP inhibition: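 normalized to the maximal wild-type response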
Conditions: for Bottom (best-fit value) / LogEC50 (best-fit value) / Span (best-fit value) / Top (best-fit value): Y205A panel
Description: The levels of the intracellular 3′, 5′-cyclic AMP (cAMP) were measured by the GloSensor cAMP assay (Promega) as described in the previous studies[28],[41] which has been widely used. The human full-length SSTRs and mutants were cloned into the pcDNA3.1+ vector with a HA signal sequence followed by a Flag tag at the N-terminus. HEK293 cells (ATCC, CRL-1573) were seeded into 6-well microplates at a density of 1.0 × 10^6 cells/well and cultured for 24 h at 37 °C with 5% CO2. Cells were then co-transfected with SSTR wild-type or mutants and GloSensor plasmids. After 24 h of transfection, the cells were dissociated with TrypLE™ Express Enzyme (1X) (Thermo Fisher Scientific) and collected by centrifugation at 500 × g for 5 min. Then the collected cells were suspended in Hank’s balanced salt solution [HBSS (Thermo Fisher Scientific)] supplemented with […] (YEASEN), and then the suspension cells were seeded into 96-well plates with 90 μl/well. After incubating at room temperature for 40 min, 5 μM forskolin and ligands diluted in HBSS were added to each well and the plates were incubated at room temperature for 15 min. […] were measured using the Synergy H1 microplate reader (BioTek) and the data presented are means of at least three independent experiments.

[1] = WT-2 (run 2 of each mutant's batch)
[2] = WT-3 (run 3 of each mutant's batch)
[3] = cAMP inhibition best-fit, D122A set, WT-1
[4] = cAMP inhibition best-fit, D122A set, WT-2
[5] = cAMP inhibition best-fit, D122A set, WT-3
[6] = cAMP inhibition best-fit, F127A set, WT-1
[7] = cAMP inhibition best-fit, F127A set, WT-2
[8] = cAMP inhibition best-fit, F127A set, WT-3
[9] = cAMP inhibition best-fit, I130A set, WT-1
[10] = cAMP inhibition best-fit, I130A set, WT-2
[11] = cAMP inhibition best-fit, I130A set, WT-3
[12] = cAMP inhibition best-fit, Q102A set, WT-1
[13] = cAMP inhibition best-fit, Q102A set, WT-2
[14] = cAMP inhibition best-fit, Q102A set, WT-3
[15] = cAMP inhibition best-fit, Q126A set, WT-1
[16] = cAMP inhibition best-fit, Q126A set, WT-2
[17] = cAMP inhibition best-fit, Q126A set, WT-3
[18] = cAMP inhibition best-fit, V103A set, WT-1
[19] = cAMP inhibition best-fit, V103A set, WT-2
[20] = cAMP inhibition best-fit, V103A set, WT-3

SSTR2, sequence (P30874 whole entry): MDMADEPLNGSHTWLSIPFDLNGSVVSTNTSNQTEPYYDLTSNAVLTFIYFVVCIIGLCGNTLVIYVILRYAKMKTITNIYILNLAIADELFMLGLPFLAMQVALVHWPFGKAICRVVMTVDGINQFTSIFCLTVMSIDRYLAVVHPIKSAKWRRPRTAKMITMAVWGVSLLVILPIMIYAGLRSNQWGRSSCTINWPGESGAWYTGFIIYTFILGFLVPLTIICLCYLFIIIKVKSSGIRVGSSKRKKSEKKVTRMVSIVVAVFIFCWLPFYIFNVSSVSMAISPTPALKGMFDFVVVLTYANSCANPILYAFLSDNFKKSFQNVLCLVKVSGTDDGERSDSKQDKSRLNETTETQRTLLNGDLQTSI

## N#Cc1cccc(-c2ccc3ncc(-c4cc(F)cc(F)c4)c(N4CCC(N)CC4)c3c2)c1O [paltusotine]
WT-1, run paired with T194H
  Span (best-fit): 111
  Top (best-fit): 106.2
WT-1, run paired with V103N
  Bottom (best-fit): 16.51
  LogEC50: -8.678
  Span (best-fit): 89.51
  Top (best-fit): 106
WT-1, run paired with Y205R
  LogEC50: -9.27
  Span (best-fit): 108.3
  Top (best-fit): 106.3
[1]
  Span (best-fit value), cAMP inhibition: 111.8 and 113.8 and 107.7 and 112.3
  Top (best-fit value), cAMP inhibition: 108 and 108.3 and 107.8 and 112.4
WT-2, run paired with D295F
  Bottom (best-fit): -1.411
  LogEC50: -9.3
  Span (best-fit): 105.2
  Top (best-fit): 103.8
WT-2, run paired with F294Y
  Bottom (best-fit): -1.411
  LogEC50: -9.3
  Span (best-fit): 105.2
  Top (best-fit): 103.8
WT-2, run paired with I195M
  Bottom (best-fit): 10.59
  LogEC50: -8.695
  Span (best-fit): 88.58
  Top (best-fit): 99.16
WT-2, run paired with T194H
  Bottom (best-fit): -0.3773
  LogEC50: -8.796
  Span (best-fit): 113.8
  Top (best-fit): 113.4
WT-2, run paired with V103N
  Bottom (best-fit): 8.218
  LogEC50: -8.87
  Span (best-fit): 100.4
  Top (best-fit): 108.6
WT-2, run paired with Y205R
  LogEC50: -9.271
  Span (best-fit): 104.8
  Top (best-fit): 105.4
[2]
  Span (best-fit value), cAMP inhibition: 106.7 and 111.8 and 113.8 and 112.4 and 113.7
  Top (best-fit value), cAMP inhibition: 107.8 and 108 and 112 and 113.6
WT-3, run paired with D295F
  Bottom (best-fit): 12.84
  LogEC50: -8.964
  Span (best-fit): 85.7
  Top (best-fit): 98.54
WT-3, run paired with F294Y
  Bottom (best-fit): -4.818
  LogEC50: -8.937
  Span (best-fit): 111
  Top (best-fit): 106.2
WT-3, run paired with T194H
  Bottom (best-fit): 8.218
  LogEC50: -8.87
  Span (best-fit): 100.4
  Top (best-fit): 108.6
WT-3, run paired with V103N
  Bottom (best-fit): -2.506
  LogEC50: -8.966
  Span (best-fit): 107.7
  Top (best-fit): 105.2
WT-3, run paired with Y205R
  LogEC50: -8.678
  Span (best-fit): 89.51
  Top (best-fit): 106
WT-1 (run 1)
  Bottom (best-fit value): -1.411
  LogEC50 (best-fit value): -9.3
  Span (best-fit value): 105.2
  Top (best-fit value): 103.8
WT-2 (run 2)
  Bottom (best-fit value): 7.891
  LogEC50 (best-fit value): -9.109
  Span (best-fit value): 96.39
  Top (best-fit value): 104.3
WT-3 (run 3)
  Bottom (best-fit value): 0.01788
  LogEC50 (best-fit value): -8.988
  Span (best-fit value): 104.7
  Top (best-fit value): 104.8
[3]
  Bottom: -4.038
  LogEC50: -8.63
  Span: 111.8
  Top: 107.8
[4]
  Bottom: -5.769
  LogEC50: -8.575
  Span: 113.8
  Top: 108
[5]
  Bottom: -1.411
  LogEC50: -9.3
  Span: 105.2
  Top: 103.8
[6]
  Bottom: -0.438
  LogEC50: -8.811
  Span: 112.4
  Top: 112
[7]
  Bottom: -4.818
  LogEC50: -8.937
  Span: 111
  Top: 106.2
[8]
  Bottom: -0.9578
  LogEC50: -9.526
  Span: 107.3
  Top: 106.4
[9]
  Bottom: -3.466
  LogEC50: -9.53
  Span: 116.5
  Top: 113
[10]
  Bottom: -6.932
  LogEC50: -9.494
  Span: 126.2
  Top: 119.3
[11]
  Bottom: -3.016
  LogEC50: -8.949
  Span: 106.8
  Top: 103.7
[12]
  LogEC50: -9.218
  Span: 100.2
  Top: 103.5
[13]
  LogEC50: -8.923
  Span: 98.67
  Top: 106.5
[14]
  LogEC50: -8.998
  Span: 106.7
  Top: 106.1
[15]
  Bottom: 7.891
  LogEC50: -9.109
  Span: 96.39
  Top: 104.3
[16]
  Bottom: -2.459
  LogEC50: -8.801
  Span: 121.7
  Top: 119.3
[17]
  Bottom: 2.655
  LogEC50: -9.073
  Span: 104.2
  Top: 106.8
[18]
  Bottom: -2.459
  LogEC50: -8.801
  Span: 121.7
  Top: 119.3
[19]
  Bottom: 3.281
  LogEC50: -9.218
  Span: 100.2
  Top: 103.5
[20]
  Bottom: 7.801
  LogEC50: -8.923
  Span: 98.67
  Top: 106.5
